Data published in publication PMC6719172, “Inhibition of CpLIP2 Lipase Hydrolytic Activity by Four Flavonols (Galangin, Kaempferol, Quercetin, Myricetin) Compared to Orlistat and Their Binding Mechanisms Studied by Quenching of Fluorescence” (Molecules, 2019).

Columns and labels:
CpLIP2 lipase [1] = target: T1, CpLIP2 lipase (Candida parapsilosis, UniProt Q8NIN8); assay: Fluorescence resonance energy transfer between CpLIP2 and flavonols (Förster theory); format: binding; details: for E (energy transfer efficiency) / J (overlap integral) / R0 (Förster distance) / r (distance between acceptor and donor) / r/R0: 2.5 µM, 308 K, pH 7.0; for R0 (Förster distance): values in Å; for r (distance between acceptor and donor): values in Å
From the text: Fluorescence emission spectra of CpLIP2 lipase overlap the UV absorption spectrum of each flavonol studied, that may induce fluorescence resonance energy transfer (FRET) governed by the binding distance r between the protein behaving as energy donor and the flavonol energy acceptor. The binding distance r can be calculated via Förster theory with the following Equations (10) and (11):(10) E=1−F/ F0=R06/ R06+r^6 where E is the energy transfer efficiency, which is the photons fraction absorbed and transferred by the donor to the acceptor, F and F0 are the fluorescence intensities of donor (CpLIP2) in the presence or absence of acceptor (flavonol) at the same concentrations. The parameter r is the distance between acceptor and donor, and R0 is the Förster distance, which is the critical energy transfer distance when 50% of the excitation energy is transferred from the donor to the acceptor. […] The value of R0 ranges from 20–90 Å for biological macromolecules.

CpLIP2 lipase [2] = target: T1, CpLIP2 lipase; assay: Quenching of CpLIP2 intrinsic tryptophan fluorescence by flavonols (Stern–Volmer, Lehrer, van't Hoff analysis); format: binding; details: for KSV (Stern–Volmer quenching constant): CpLIP2 2.5 µM, pH 7.0, flavonol 2.5–25 µM (GAL 2.5–17.5 µM); for Kq (bimolecular quenching constant): Kq = KSV/τ0, τ0 1.59 ns; for KSV (accessible), Stern–Volmer quenching constant of the exposed W residues / fa (fraction of accessible W residues to the quencher): Lehrer equation; for ΔG (free energy change): ΔG = ΔH − TΔS; for Kd: Kd (dissociation constant); for order of magnitude of Kq: all temperatures of Table 1; for ΔS (entropy changes): van't Hoff plot, 298–328 K
From the text: The fluorescence quenching spectra of CpLIP2 lipase submitted to increasing concentrations of GAL, KAE, QUE and MYR are shown in Figure 3. A remarkable quenching of the CpLIP2 fluorescence emission was observed. […] The fluorescence quenching is usually described by the linear Stern–Volmer Equations (2) and (3):(2) F0/F = 1 + Ksv [Q] = 1 + Kqτ0 [Q] (3) Kq=Ksv/τ0 where F0 and F are the intrinsic fluorescence intensities of CpLIP2 lipase (fluorophore) in absence or presence of quencher (flavonol), respectively. Kq is the bimolecular quenching constant, τ0 is the lifetime of the fluorophore in the absence of the quencher, [Q] is the concentration of the quencher, and KSV is the Stern–Volmer quenching constant.
The mechanism of quenching, occurring between CpLIP2 lipase and flavonols, was characterized by determining the values of Kq and the thermodynamic parameters by varying the temperature. […] In both cases, the bimolecular quenching constant Kq can be calculated by the ratio between KSV and τ0, itself determined at 1.59 ns for Human Pancreatic Lipase.
The inaccessible or buried residues are responsible for the remaining fluorescence, which is probably independent of the quencher concentration. […] An up-down curvature towards the x-axis has been shown for the four flavonols (Figure 4), indicating the presence of two populations of fluorophores, part of which would not be accessible. That means that some W residues are buried inside the lipase structure and that other residues are exposed to the solvent. Therefore, data were analyzed through the Lehrer equation, also known as the modified (or non-linear) Stern–Volmer Equation (4):(4) F0/ F0−F = 1/ fa Ksv 1/ [Q] +1/ fa
For static quenching, the equilibrium between free and bound CpLIP2 lipase, when the ligand molecules bind independently to equivalent sites of macromolecules, can be described by the following Equation (5):(5) log10F0−F/F=nlog10[Q]+log10Ka where Ka is the binding constant and n the number of binding sites per CpLIP2 molecule.
The results were determined for all flavonols tested at different temperatures from the plots of log10 F0 − F/F versus log10 [Q] and listed in Table 2. The plots show a linear relationship from which the slope equal to n and intercept on y-axis equal to log10 Ka. For the four flavonols, the Ka values increased when the temperatures increased. In addition, the n values were less than 1.0 in all cases and increased according to the temperature. […] Values of the dissociation constant of complexes were deduced from the Stern–Volmer Equation (6) and (7), for which Kd is expressed as the inverse of fa Ksv product. (6) F0/ F0−F= Kd 1/ [Q] +1 (7) Kd= 1/fa Ksv
Thermodynamic parameters were calculated to determine the type of binding forces that contribute in the CpLIP2 lipase–flavonol interactions. […] Both the enthalpy (ΔH) and entropy changes (ΔS) can be estimated from the following van′t Hoff Equation (8):(8) Ln Ka = − ΔH /RT + ΔS /R
The values of Gibbs binding free energy change (ΔG) are calculated from the following Equation (9):(9) ΔG= ΔH − TΔS
To fill up the volume of 300 µL by well, 190 µL of sodium phosphate buffer solution (75 mM, pH 7.0) was added to each well to obtain final concentration at 50 mM. Then, 100 µL of ethanol absolute–water ultrapure (2:8, v/v) solution was added to obtain a final amount of ethanol […] in the well of 300 µL. […] The final concentration of ethanol during the experiments never exceeded 0.07% (v/v). The last step was to add 10 µL of lipase after to have optimized the final concentration of CpLIP2 equal to 2.5 µM for all our assays, giving the optimal fluorescence intensity for all measurements. The measurement of intrinsic fluorescence started after mechanical shaking for 30 s inside the multi-plate reader. […]

T1 sequence (Q8NIN8 entry or part of it): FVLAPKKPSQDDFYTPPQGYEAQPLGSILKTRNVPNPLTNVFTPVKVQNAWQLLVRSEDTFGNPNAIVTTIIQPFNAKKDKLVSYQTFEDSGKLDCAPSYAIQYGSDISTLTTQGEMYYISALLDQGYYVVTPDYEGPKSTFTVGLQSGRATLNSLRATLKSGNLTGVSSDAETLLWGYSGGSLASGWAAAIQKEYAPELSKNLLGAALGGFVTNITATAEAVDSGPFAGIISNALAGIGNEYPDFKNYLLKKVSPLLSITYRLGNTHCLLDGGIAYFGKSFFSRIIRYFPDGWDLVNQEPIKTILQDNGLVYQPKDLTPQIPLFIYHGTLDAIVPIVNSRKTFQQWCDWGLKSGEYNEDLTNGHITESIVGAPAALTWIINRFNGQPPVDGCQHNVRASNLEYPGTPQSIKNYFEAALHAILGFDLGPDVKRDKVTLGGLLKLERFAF

O=c1c(O)c(-c2ccc(O)cc2)oc2cc(O)cc(O)c12 [KAE, kaempferol]
percentage of transfer efficiency (CpLIP2 lipase [1]): 12%
E (energy transfer efficiency) (CpLIP2 lipase [1]): 0.12
J (overlap integral) (CpLIP2 lipase [1]): 10 × 10^14 nm^4·cm^−1·M^−1
R0 (Förster distance) (CpLIP2 lipase [1]): 36.0 Å
r (distance between acceptor and donor) (CpLIP2 lipase [1]): 50.1 Å
r/R0 (CpLIP2 lipase [1]): 1.4
Ka (association constant) (CpLIP2 lipase [2]; 298 K): 458 ± 2. L·mol^−1
n (number of binding sites) (CpLIP2 lipase [2]; 298 K): 0.63 ± 0.07
KSV (Stern–Volmer quenching constant) (CpLIP2 lipase [2]; 298 K): 2.1 ± 0.2 × 10^4 L·mol^−1
Kq (bimolecular quenching constant) (CpLIP2 lipase [2]; 298 K): 1.3e+13 L/mol/s
KSV (accessible), Stern–Volmer quenching constant of the exposed W residues (CpLIP2 lipase [2]; 298 K): 140000 L/mol
fa (fraction of accessible W residues to the quencher) (CpLIP2 lipase [2]; 298 K): 0.45
ΔG (free energy change) (CpLIP2 lipase [2]; 298 K): -39.3 kJ/mol
Ka (association constant) (CpLIP2 lipase [2]; 308 K): 476 ± 4 L/mol
n (number of binding sites) (CpLIP2 lipase [2]; 308 K): 0.63 ± 0.07
KSV (Stern–Volmer quenching constant) (CpLIP2 lipase [2]; 308 K): 1.9 ± 0.7 × 10^4 L·mol^−1
Kq (bimolecular quenching constant) (CpLIP2 lipase [2]; 308 K): 1.2e+13 L/mol/s
KSV (accessible), Stern–Volmer quenching constant of the exposed W residues (CpLIP2 lipase [2]; 308 K): 170000 L/mol
fa (fraction of accessible W residues to the quencher) (CpLIP2 lipase [2]; 308 K): 0.43
ΔG (free energy change) (CpLIP2 lipase [2]; 308 K): -40.6 kJ/mol
Ka (association constant) (CpLIP2 lipase [2]; 318 K): 862 ± 3 L/mol
n (number of binding sites) (CpLIP2 lipase [2]; 318 K): 0.69 ± 0.09
KSV (Stern–Volmer quenching constant) (CpLIP2 lipase [2]; 318 K): 1.8 ± 0.7 × 10^4 L·mol^−1
Kq (bimolecular quenching constant) (CpLIP2 lipase [2]; 318 K): 1.1e+13 L/mol/s
KSV (accessible), Stern–Volmer quenching constant of the exposed W residues (CpLIP2 lipase [2]; 318 K): 150000 L/mol
fa (fraction of accessible W residues to the quencher) (CpLIP2 lipase [2]; 318 K): 0.42
ΔG (free energy change) (CpLIP2 lipase [2]; 318 K): -41.9 kJ/mol
Ka (association constant) (CpLIP2 lipase [2]; 328 K): 1290 ± 2 L/mol
n (number of binding sites) (CpLIP2 lipase [2]; 328 K): 0.75 ± 0.07
KSV (Stern–Volmer quenching constant) (CpLIP2 lipase [2]; 328 K): 1.6 ± 0.6 × 10^4 L·mol^−1
Kq (bimolecular quenching constant) (CpLIP2 lipase [2]; 328 K): 1e+13 L/mol/s
KSV (accessible), Stern–Volmer quenching constant of the exposed W residues (CpLIP2 lipase [2]; 328 K): 150000 L/mol
fa (fraction of accessible W residues to the quencher) (CpLIP2 lipase [2]; 328 K): 0.34
ΔG (free energy change) (CpLIP2 lipase [2]; 328 K): -43.3 kJ/mol
Kd (CpLIP2 lipase [2]; 298 K): 16 ± 3 µM
Kd (CpLIP2 lipase [2]; 308 K): 14 ± 5 µM
Kd (CpLIP2 lipase [2]; 318 K): 16 ± 7 µM
Kd (CpLIP2 lipase [2]; 328 K): 19 ± 9 µM
order of magnitude of Kq (CpLIP2 lipase [2]): ~10^13 L mol^−1 s^−1
ΔS (entropy changes) (CpLIP2 lipase [2]): 0.13 kJ·mol^−1·K^−1

O=c1c(O)c(-c2cc(O)c(O)c(O)c2)oc2cc(O)cc(O)c12 [MYR, myricetin]
percentage of transfer efficiency (CpLIP2 lipase [1]): 23%
E (energy transfer efficiency) (CpLIP2 lipase [1]): 0.23
J (overlap integral) (CpLIP2 lipase [1]): 15 × 10^14 nm^4·cm^−1·M^−1
R0 (Förster distance) (CpLIP2 lipase [1]): 38.4 Å
r (distance between acceptor and donor) (CpLIP2 lipase [1]): 46.7 Å
r/R0 (CpLIP2 lipase [1]): 1.2
Ka (association constant) (CpLIP2 lipase [2]; 298 K): 45.21 ± 1 L/mol
n (number of binding sites) (CpLIP2 lipase [2]; 298 K): 0.43 ± 0.02
KSV (Stern–Volmer quenching constant) (CpLIP2 lipase [2]; 298 K): 1.6 ± 0.1 × 10^4 L·mol^−1
Kq (bimolecular quenching constant) (CpLIP2 lipase [2]; 298 K): 1e+13 L/mol/s
KSV (accessible), Stern–Volmer quenching constant of the exposed W residues (CpLIP2 lipase [2]; 298 K): 290000 L/mol
fa (fraction of accessible W residues to the quencher) (CpLIP2 lipase [2]; 298 K): 0.34
ΔG (free energy change) (CpLIP2 lipase [2]; 298 K): -26.2 kJ/mol
Ka (association constant) (CpLIP2 lipase [2]; 308 K): 53.09 ± 2 L/mol
n (number of binding sites) (CpLIP2 lipase [2]; 308 K): 0.46 ± 0.03
KSV (Stern–Volmer quenching constant) (CpLIP2 lipase [2]; 308 K): 1.3 ± 0.5 × 10^4 L·mol^−1
Kq (bimolecular quenching constant) (CpLIP2 lipase [2]; 308 K): 8.2e+12 L/mol/s
KSV (accessible), Stern–Volmer quenching constant of the exposed W residues (CpLIP2 lipase [2]; 308 K): 280000 L/mol
fa (fraction of accessible W residues to the quencher) (CpLIP2 lipase [2]; 308 K): 0.32
ΔG (free energy change) (CpLIP2 lipase [2]; 308 K): -27.0 kJ/mol
Ka (association constant) (CpLIP2 lipase [2]; 318 K): 44.79 ± 1 L/mol
n (number of binding sites) (CpLIP2 lipase [2]; 318 K): 0.44 ± 0.02
KSV (Stern–Volmer quenching constant) (CpLIP2 lipase [2]; 318 K): 1.2 ± 0.4 × 10^4 L·mol^−1
Kq (bimolecular quenching constant) (CpLIP2 lipase [2]; 318 K): 7.7e+12 L/mol/s
KSV (accessible), Stern–Volmer quenching constant of the exposed W residues (CpLIP2 lipase [2]; 318 K): 320000 L/mol
fa (fraction of accessible W residues to the quencher) (CpLIP2 lipase [2]; 318 K): 0.30
ΔG (free energy change) (CpLIP2 lipase [2]; 318 K): -27.9 kJ/mol
Ka (association constant) (CpLIP2 lipase [2]; 328 K): 97.14 ± 2 L/mol
n (number of binding sites) (CpLIP2 lipase [2]; 328 K): 0.51 ± 0.09
KSV (Stern–Volmer quenching constant) (CpLIP2 lipase [2]; 328 K): 1.4 ± 0.5 × 10^4 L·mol^−1
Kq (bimolecular quenching constant) (CpLIP2 lipase [2]; 328 K): 9e+12 L/mol/s
KSV (accessible), Stern–Volmer quenching constant of the exposed W residues (CpLIP2 lipase [2]; 328 K): 250000 L/mol
fa (fraction of accessible W residues to the quencher) (CpLIP2 lipase [2]; 328 K): 0.33
ΔG (free energy change) (CpLIP2 lipase [2]; 328 K): -28.8 kJ/mol
Kd (CpLIP2 lipase [2]; 298 K): 10 ± 1 µM
Kd (CpLIP2 lipase [2]; 308 K): 11 ± 4 µM
Kd (CpLIP2 lipase [2]; 318 K): 10 ± 4 µM
Kd (CpLIP2 lipase [2]; 328 K): 12 ± 7 µM
fa (fraction of accessible W residues) (CpLIP2 lipase [2]; across temperatures): 0.33
n (number of binding sites) (CpLIP2 lipase [2]; across temperatures): 0.43
order of magnitude of Kq (CpLIP2 lipase [2]): ~10^13 L mol^−1 s^−1
ΔS (entropy changes) (CpLIP2 lipase [2]): 0.10 kJ·mol^−1·K^−1
